Source: patent publication US9695155B2, “Herbicidal substituted pyrimidinyloxy benzene compounds” (E. I. DU PONT DE NEMOURS AND COMPANY, priority 2013, dated 2017)

Columns and labels:
bluegrass = test: Test D preemergence; format: in vivo, Poa annua; conditions: Poa annua, pre-emergence
Excerpt: (§1) Seeds of plant species selected from bluegrass (annual bluegrass, Poa annua), blackgrass (Alopecurus myosuroides), canarygrass (littleseed canarygrass, Phalaris minor), chickweed (common chickweed, Stellaria media), galium (catchweed bedstraw, Galium aparine), bromegrass, downy (downy bromegrass, Bromus tectorum), field poppy (Papaver rhoeas), field violet (Viola arvensis), green foxtail (Setaria viridis), deadnettle (henbit deadnettle, Lamium amplexicaule), Italian ryegrass (Lolium multiflorum), kochia (Kochia scoparia), lambsquarters (Chenopodium album), oilseed rape (Brassica napus), pigweed (Amaranthus retroflexus), chamomile (scentless chamomile, Matricaria inodora), Russian thistle (Salsola kali), speedwell (bird's-eye speedwell, Veronica persica), spring barley (Hordeum vulgare), spring wheat (Triticum aestivum), wild buckwheat (Polygonum convolvulus), wild mustard (Sinapis arvensis), wild oat (Avena fatua), wild radish (Raphanus raphanistrum), windgrass (Apera spica-venti), winter barley (Hordeum vulgare), and winter wheat (Triticum aestivum) were planted into a silt loam soil and treated preemergence with test chemicals formulated in a non-phytotoxic solvent mixture which included a surfactant.
(§2) At the same time, these species were planted in pots containing Redi-Earth® planting medium (Scotts Company, 14111 Scottslawn Road, Marysville, Ohio 43041) comprising spaghnum peat moss, vermiculite, wetting agent and starter nutrients and treated with postemergence applications of the test chemicals formulated in the same manner. Plants ranged in height from 2 to 18 cm (1- to 4-leaf stage). Treated plants and controls were maintained in a controlled growth environment for 7 to 21 days after which time all species were compared to controls and visually evaluated. Plant response ratings, summarized in Table D, are based on a scale of 0 to 100 where 0 is no effect and 100 is complete control. A dash (-) response means no test result.

green foxtail = test: Test D preemergence; format: in vivo, Setaria viridis; conditions: Setaria viridis, pre-emergence
Excerpt: as §1, §2

oilseed rape = test: Test D preemergence; format: in vivo, Brassica napus; conditions: Brassica napus, pre-emergence
Procedure, shortened: (§3)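 Seeds sown in silt loam soil got preemergence sprays; plants in peat/vermiculite potting medium were sprayed postemergence at 2–18 cm (1- to 4-leaf stage). Chemicals were formulated in a non-phytotoxic solvent mixture with surfactant. After 7 to 21 days in a controlled environment, injury was rated visually versus controls, 0 (no effect) to 100 (complete control).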

bromegrass, downy = test: Test D postemergence; format: in vivo, Bromus tectorum; conditions: Bromus tectorum, post-emergence, Postemergence, scale 0 to 100 (0 no effect, 100 complete control), read-out: Plant response rating, Bromegrass, Downy
Procedure, shortened: as §3

field poppy = test: Test D postemergence; format: in vivo, Papaver rhoeas; conditions: Papaver rhoeas, post-emergence
Procedure, shortened: as §3

field violet = test: Test D postemergence; format: in vivo, Viola arvensis; conditions: Viola arvensis, post-emergence
Procedure, shortened: as §3

deadnettle = test: Test D postemergence; format: in vivo, Lamium amplexicaule; conditions: Lamium amplexicaule, post-emergence
Excerpt: as §1, §2

kochia = test: Test D postemergence; format: in vivo, Kochia scoparia; conditions: Bassia scoparia, post-emergence
Procedure, shortened: as §3

chamomile = test: Test D postemergence; format: in vivo, Matricaria inodora; conditions: Tripleurospermum inodorum, post-emergence
Excerpt: as §1, §2

speedwell = test: Test D postemergence; format: in vivo, Veronica persica; conditions: Veronica persica, post-emergence
Procedure, shortened: as §3

wild mustard = test: Test D postemergence; format: in vivo, Sinapis arvensis; conditions: Brassica, post-emergence
Excerpt: as §1, §2

wild radish = test: Test D postemergence; format: in vivo, Raphanus raphanistrum; conditions: Raphanus raphanistrum, post-emergence
Excerpt: as §1, §2

FC(F)(F)c1cnn(-c2ccccc2Oc2ncc(Br)cn2)c1 [Compound 18, 5-bromo-2-[2-[4-(trifluoromethyl)-1H-pyrazol-1-yl]phenoxy]pyrimidine]
pest or weed control at 16 g/ha (bluegrass; 16 g ai/ha, scale 0 (no effect) to 100 (complete control), read-out: Plant response rating, Bluegrass): 10%
pest or weed control at 31 g/ha (bluegrass; 31 g ai/ha, scale 0-100, read-out: Plant response rating, Bluegrass): 30%
pest or weed control at 62 g/ha (bluegrass; 62 g ai/ha, scale 0-100, read-out: Plant response rating, Bluegrass): 70%
pest or weed control at 125 g/ha (bluegrass; 125 g ai/ha, scale 0-100, read-out: Plant response rating, Bluegrass): 100%
pest or weed control at 250 g/ha (bluegrass; 250 g ai/ha, scale 0-100, read-out: Plant response rating, Bluegrass): 100%
pest or weed control at 16 g/ha (green foxtail; 16 g ai/ha, scale 0 (no effect) to 100 (complete control), read-out: Plant response rating, Foxtail, Green): 5%
pest or weed control at 31 g/ha (green foxtail; 31 g ai/ha, scale 0-100, read-out: Plant response rating, Foxtail, Green): 15%
pest or weed control at 62 g/ha (green foxtail; 62 g ai/ha, scale 0-100, read-out: Plant response rating, Foxtail, Green): 50%
pest or weed control at 125 g/ha (green foxtail; 125 g ai/ha, scale 0-100, read-out: Plant response rating, Foxtail, Green): 95%
pest or weed control at 250 g/ha (green foxtail; 250 g ai/ha, scale 0-100, read-out: Plant response rating, Foxtail, Green): 100%
plant injury at 16 g/ha (oilseed rape; 16 g ai/ha, scale 0 (no effect) to 100 (complete control), read-out: Plant response rating, Oilseed Rape): 40%
plant injury at 31 g/ha (oilseed rape; 31 g ai/ha, scale 0-100, read-out: Plant response rating, Oilseed Rape): 30%
plant injury at 62 g/ha (oilseed rape; 62 g ai/ha, scale 0-100, read-out: Plant response rating, Oilseed Rape): 100%
plant injury at 125 g/ha (oilseed rape; 125 g ai/ha, scale 0-100, read-out: Plant response rating, Oilseed Rape): 100%
plant injury at 250 g/ha (oilseed rape; 250 g ai/ha, scale 0-100, read-out: Plant response rating, Oilseed Rape): 100%
pest or weed control at 16 g/ha (bromegrass, downy; 16 g ai/ha): 15%
pest or weed control at 31 g/ha (bromegrass, downy; 31 g ai/ha): 15%
pest or weed control at 62 g/ha (bromegrass, downy; 62 g ai/ha): 15%
pest or weed control at 125 g/ha (bromegrass, downy; 125 g ai/ha): 20%
pest or weed control at 250 g/ha (bromegrass, downy; 250 g ai/ha): 15%
pest or weed control at 16 g/ha (field poppy; 16 g ai/ha, scale 0-100, read-out: Plant response rating, Field Poppy): 80%
pest or weed control at 31 g/ha (field poppy; 31 g ai/ha, scale 0 to 100 (0 no effect, 100 complete control), read-out: Plant response rating, Field Poppy): 75%
pest or weed control at 62 g/ha (field poppy; 62 g ai/ha, scale 0 to 100 (0 no effect, 100 complete control), read-out: Plant response rating, Field Poppy): 75%
pest or weed control at 125 g/ha (field poppy; 125 g ai/ha, scale 0 to 100 (0 no effect, 100 complete control), read-out: Plant response rating, Field Poppy): 100%
pest or weed control at 250 g/ha (field poppy; 250 g ai/ha, scale 0 to 100 (0 no effect, 100 complete control), read-out: Plant response rating, Field Poppy): 100%
pest or weed control at 16 g/ha (field violet; 16 g ai/ha, scale 0-100, read-out: Plant response rating, Field Violet): 55%
pest or weed control at 31 g/ha (field violet; 31 g ai/ha, scale 0 to 100 (0 no effect, 100 complete control), read-out: Plant response rating, Field Violet): 80%
pest or weed control at 62 g/ha (field violet; 62 g ai/ha, scale 0 to 100 (0 no effect, 100 complete control), read-out: Plant response rating, Field Violet): 65%
pest or weed control at 125 g/ha (field violet; 125 g ai/ha, scale 0 to 100 (0 no effect, 100 complete control), read-out: Plant response rating, Field Violet): 80%
pest or weed control at 250 g/ha (field violet; 250 g ai/ha, scale 0 to 100 (0 no effect, 100 complete control), read-out: Plant response rating, Field Violet): 90%
pest or weed control at 16 g/ha (deadnettle; 16 g ai/ha, scale 0-100, read-out: Plant response rating, Deadnettle): 50%
pest or weed control at 31 g/ha (deadnettle; 31 g ai/ha, scale 0 to 100 (0 no effect, 100 complete control), read-out: Plant response rating, Deadnettle): 65%
pest or weed control at 62 g/ha (deadnettle; 62 g ai/ha, scale 0 to 100 (0 no effect, 100 complete control), read-out: Plant response rating, Deadnettle): 75%
pest or weed control at 125 g/ha (deadnettle; 125 g ai/ha, scale 0 to 100 (0 no effect, 100 complete control), read-out: Plant response rating, Deadnettle): 90%
pest or weed control at 250 g/ha (deadnettle; 250 g ai/ha, scale 0 to 100 (0 no effect, 100 complete control), read-out: Plant response rating, Deadnettle): 100%
pest or weed control at 16 g/ha (kochia; 16 g ai/ha, scale 0-100, read-out: Plant response rating, Kochia): 35%
pest or weed control at 31 g/ha (kochia; 31 g ai/ha, scale 0 to 100 (0 no effect, 100 complete control), read-out: Plant response rating, Kochia): 85%
pest or weed control at 62 g/ha (kochia; 62 g ai/ha, scale 0 to 100 (0 no effect, 100 complete control), read-out: Plant response rating, Kochia): 90%
pest or weed control at 125 g/ha (kochia; 125 g ai/ha, scale 0 to 100 (0 no effect, 100 complete control), read-out: Plant response rating, Kochia): 100%
pest or weed control at 250 g/ha (kochia; 250 g ai/ha, scale 0 to 100 (0 no effect, 100 complete control), read-out: Plant response rating, Kochia): 100%
pest or weed control at 16 g/ha (chamomile; 16 g ai/ha, scale 0-100, read-out: Plant response rating, Chamomile): 5%
pest or weed control at 31 g/ha (chamomile; 31 g ai/ha, scale 0 to 100 (0 no effect, 100 complete control), read-out: Plant response rating, Chamomile): 10%
pest or weed control at 62 g/ha (chamomile; 62 g ai/ha, scale 0 to 100 (0 no effect, 100 complete control), read-out: Plant response rating, Chamomile): 5%
pest or weed control at 125 g/ha (chamomile; 125 g ai/ha, scale 0 to 100 (0 no effect, 100 complete control), read-out: Plant response rating, Chamomile): 10%
pest or weed control at 250 g/ha (chamomile; 250 g ai/ha, scale 0 to 100 (0 no effect, 100 complete control), read-out: Plant response rating, Chamomile): 10%
pest or weed control at 16 g/ha (speedwell; 16 g ai/ha, scale 0-100, read-out: Plant response rating, Speedwell): 100%
pest or weed control at 31 g/ha (speedwell; 31 g ai/ha, scale 0 to 100 (0 no effect, 100 complete control), read-out: Plant response rating, Speedwell): 100%
pest or weed control at 62 g/ha (speedwell; 62 g ai/ha, scale 0 to 100 (0 no effect, 100 complete control), read-out: Plant response rating, Speedwell): 100%
pest or weed control at 125 g/ha (speedwell; 125 g ai/ha, scale 0 to 100 (0 no effect, 100 complete control), read-out: Plant response rating, Speedwell): 100%
pest or weed control at 250 g/ha (speedwell; 250 g ai/ha, scale 0 to 100 (0 no effect, 100 complete control), read-out: Plant response rating, Speedwell): 100%
pest or weed control at 16 g/ha (wild mustard; 16 g ai/ha, scale 0-100, read-out: Plant response rating, Mustard, Wild): 60%
pest or weed control at 31 g/ha (wild mustard; 31 g ai/ha, scale 0 to 100 (0 no effect, 100 complete control), read-out: Plant response rating, Mustard, Wild): 90%
pest or weed control at 62 g/ha (wild mustard; 62 g ai/ha, scale 0 to 100 (0 no effect, 100 complete control), read-out: Plant response rating, Mustard, Wild): 70%
pest or weed control at 125 g/ha (wild mustard; 125 g ai/ha, scale 0 to 100 (0 no effect, 100 complete control), read-out: Plant response rating, Mustard, Wild): 80%
pest or weed control at 250 g/ha (wild mustard; 250 g ai/ha, scale 0 to 100 (0 no effect, 100 complete control), read-out: Plant response rating, Mustard, Wild): 100%
pest or weed control at 16 g/ha (wild radish; 16 g ai/ha, scale 0-100, read-out: Plant response rating, Radish, Wild): 95%
pest or weed control at 31 g/ha (wild radish; 31 g ai/ha, scale 0 to 100 (0 no effect, 100 complete control), read-out: Plant response rating, Radish, Wild): 90%
pest or weed control at 62 g/ha (wild radish; 62 g ai/ha, scale 0 to 100 (0 no effect, 100 complete control), read-out: Plant response rating, Radish, Wild): 100%
pest or weed control at 125 g/ha (wild radish; 125 g ai/ha, scale 0 to 100 (0 no effect, 100 complete control), read-out: Plant response rating, Radish, Wild): 100%
pest or weed control at 250 g/ha (wild radish; 250 g ai/ha, scale 0 to 100 (0 no effect, 100 complete control), read-out: Plant response rating, Radish, Wild): 100%
